Measurements published in patent US20220332774A1, “THERAPEUTIC MITOCHONDRIAL PEPTIDES” (priority 2019, published 2022).

System: 3T3-L1 Mouse Adipocytes
Test: Free fatty acid levels in cultured 3T3-L1 mouse adipocytes (isoproterenol stimulated)
Type: cell-based
Details: free fatty acid in medium; 5 μM peptide, 20-22 h pre-incubation then 3 h with 0.1 nM isoproterenol; isoproterenol alone = 100%
Method: The effect of the peptides on fatty acid metabolism can be assessed using an assay to monitor free fatty acid levels produced by cultured cells such as mouse adipocytes. Peptide arrays were initially prepared as 5 mM stock in DMSO and diluted to 0.5 mM in H2O; peptides were used at a final concentration of 5 μM (0.1% DMSO). Calculations for peptide concentrations based on approximate molecular weight of 2000 Daltons. […] Mouse 3T3-L1 cells purchased from ZenBio (Research Triangle Park, NC) were seeded at 3,000 cells per well in 96-well plates in Pre-adipocyte Medium (Zen-Bio) and grown to confluence at 37° C. in a humidified atmosphere of 5% CO2/95% air. Two days after confluence, cells were placed in Adipocyte Differentiation Medium (Zen-Bio) and cultured for three additional days at 37° C. in a humidified atmosphere of 5% CO2/95% air. The culture medium was then replaced with Adipocyte Maintenance Medium (Zen-Bio) and the cells maintained for an additional 9 days at 37° C. in a humidified atmosphere of 5% CO2/95% air with partial medium replacement every other day. Following 12 days of differentiation, medium was replaced Adipocyte Maintenance Medium without insulin and the cultures placed at 37° C. in a humidified atmosphere of 5% CO2/95% air. On day 13 of differentiation, test peptides were added directly to each well (without replacing the medium) at a final concentration of 5 μM in 0.1% DMSO and incubated for 20-22 hours at 37° C. in a humidified atmosphere of 5% CO2/95% air. […] Cells were incubated for 3 hours in Assay Buffer (Zen-Bio) at 37° C. in a humidified atmosphere of 5% CO2/95% air. Following 3 h incubation, conditioned medium from each well was transferred to a fresh 96-well plate. Free fatty acid concentrations in the medium were determined using a Free Fatty Acid Assay kit (Zen-Bio) according to the manufacturer's instructions; absorbance was measured using a Cytation 3 plate reader at 540 nm (BioTek, Winooski, Vt.). Treatment with 0.1 nM isoproterenol alone was used as the free fatty acid level stimulatory control. Absorbance values were expressed as percent control activity relative to 0.1 nM isoproterenol alone treated cells, 100%. The relative standard deviation of the isoproterenol control was <10%. Insulin at 0.25 nM was used as a potent control for decreasing free fatty acid levels. […] Data presented are representative values from 2 independent experiments with each data point performed in triplicate in each independent experiment.

First: 187 (AYEGCCYSCKQEDNADVSGFWVEK) [compound 187]
Second: 165 (MWRVLGALWW) [compound 165]
The “Percent of Isoproterenol Control Activity” value of the first is lower: 102% for the first, 108% for the second.

First: 28 (MGCSGSSVSQCYRVHTPQTKMPNAW) [compound 28]
Second: 201 (TKNFHQTPPPPLLATALKHISAKP) [compound 201]
The “Percent of Isoproterenol Control Activity” value of the first is higher: 105% for the first, 102% for the second.

First: 53 (MIYVSSDVGDWWKGGWGVWWVVHG) [compound 53]
Second: 149 (MVLSSPPIFRMSCSLL) [compound 149]
The “Percent of Isoproterenol Control Activity” value of the first is lower: 91% for the first, 100% for the second.

Compared with 126 (MSTHLPNYHTNLSYR) [compound 126], 52 (MITVPAHKGMAMA) [compound 52] is lower in “Percent of Isoproterenol Control Activity” value: 108% for the first, 92% for the second.

Compared with 124 (MSSAWIIWFRLFSI) [compound 124], 62 (MLGVVGWCRL) [compound 62] is lower in “Percent of Isoproterenol Control Activity” value: 113% for the first, 94% for the second.

First: 121 (MSNMKTFSSA) [compound 121]
Second: 25 (MFLVGWWGMV) [compound 25]
The “Percent of Isoproterenol Control Activity” value of the first is higher: 118% for the first, 91% for the second.

First: 117 (MSKKIPATTMVLEWS) [compound 117]
Second: 96 (MNHNQYYQSMLIINNHNSYSNKT) [compound 96]
The “Percent of Isoproterenol Control Activity” value of the first is lower: 98% for the first, 100% for the second.

First: 185 (MLVMLEVMFLVN) [compound 185]
Second: 141 (MVEGWLLYLLVSMG) [compound 141]
The “Percent of Isoproterenol Control Activity” value of the first is lower: 86% for the first, 96% for the second.

System: H4-IIE Cells
Test: Glucose production in cultured H4-IIE cells
Type: cell-based, rat
Details: glucose concentration in medium relative to untreated cells; 5 μM peptide, 24 h
Method: The effect of the peptides on glucose homeostasis can be assessed using an assay to monitor glucose production by cultured cells such as rat hepatocytes. Peptide arrays were initially prepared as 5 mM stock in DMSO and diluted to 0.5 mM in H2O; peptides were used at a final concentration of 5 μM (0.1% DMSO). Calculations for peptide concentrations based on approximate molecular weight of 2000 Daltons. H4-IIE rat hepatic cell line was purchased from American Type Culture Collection (Manassas, Va.). H4-IIE cells were seeded in standard medium (DMEM/high glucose+10% Fetal Bovine Serum+antibiotics) at 100,000 cells/well on 96-well plates and allowed to adhere overnight at 37° C. in a humidified atmosphere of 5% CO2/95% air. 24 h after seeding, the medium was removed, cells were rinsed with glucose free DMEM, and the medium replaced with Glucose Production Medium (glucose free DMEM+2 mM sodium pyruvate+10 mM sodium lactate+antibiotics). The cultures were placed at 37° C. in a humidified atmosphere of 5% CO2/95% air overnight. The next morning, the medium was removed and fresh Glucose Production Medium containing compounds was added; 5 uM peptide or 0.5-1 nM insulin as a potent inhibitor of glucose production. Cells were incubated for 24 h at 37° C. in a humidified atmosphere of 5% CO2/95% air. Following 24 h incubation, conditioned medium from each well was transferred to a fresh 96-well plate. Glucose concentrations in the medium were determined using a Glucose Assay kit (Abcam; Cambridge, Mass.) according to the manufacturer's instructions; absorbance measured using a Cytation 3 plate reader at 570 nm (BioTek, Winooski, Vt.). Untreated cells were used as reference for maximal glucose production. Absorbance values were expressed as percent control activity relative to untreated treated cells for 5 μM peptide. The relative standard deviation from plate to plate of untreated control was <25%. […] Glucose levels for 0.5-1 nM insulin treatment were <5% of the untreated control value. Data are presented as representative values from 2-3 independent experiments with each data point performed in triplicate in each independent experiment.

Compared with “187 (AYEGCCYSCKQEDNADVSGFWVEK) [compound 187]”, 165 (MWRVLGALWW) [compound 165] is higher in “Percent of Control Activity” value: 113% for the first, 125% for the second.

Compared with “28 (MGCSGSSVSQCYRVHTPQTKMPNAW) [compound 28]”, “201 (TKNFHQTPPPPLLATALKHISAKP) [compound 201]” is lower in “Percent of Control Activity” value: 121% for the first, 109% for the second.

Compared with “53 (MIYVSSDVGDWWKGGWGVWWVVHG) [compound 53]”, 149 (MVLSSPPIFRMSCSLL) [compound 149] is lower in “Percent of Control Activity” value: 115% for the first, 97% for the second.

Compared with 126 (MSTHLPNYHTNLSYR) [compound 126], 52 (MITVPAHKGMAMA) [compound 52] is higher in “Percent of Control Activity” value: 87% for the first, 107% for the second.

Compared with 124 (MSSAWIIWFRLFSI) [compound 124], 62 (MLGVVGWCRL) [compound 62] is higher in “Percent of Control Activity” value: 97% for the first, 106% for the second.

First: 121 (MSNMKTFSSA) [compound 121]
Second: 25 (MFLVGWWGMV) [compound 25]
The “Percent of Control Activity” value of the first is higher: 95% for the first, 94% for the second.

Compared with 117 (MSKKIPATTMVLEWS) [compound 117], “96 (MNHNQYYQSMLIINNHNSYSNKT) [compound 96]” is higher in “Percent of Control Activity” value: 121% for the first, 130% for the second.

Compared with 185 (MLVMLEVMFLVN) [compound 185], 141 (MVEGWLLYLLVSMG) [compound 141] is lower in “Percent of Control Activity” value: 119% for the first, 103% for the second.

System: C2C12 Cells
Test: Glucose utilization in cultured C2C12 cells (myotubes)
Type: cell-based, mouse
Details: glucose concentration in medium relative to untreated cells; 5 μM peptide, 22 h
Method: The effect of the peptides on glucose homeostasis can be assessed using an assay to monitor glucose utilization by cultured cells such as mouse myotubes. Peptide arrays were initially prepared as 5 mM stock in DMSO and diluted to 0.5 mM in H2O; peptides were used at a final concentration of 5 μM (0.1% DMSO). Calculations for peptide concentrations based on approximate molecular weight of 2000 Daltons. C2C12 mouse muscle cell line was purchased from Millipore Sigma (Saint Louis, Mo.). C2C12 cells were seeded in standard medium (DMEM/low glucose (1 g/L)+10% Fetal Bovine Serum+antibiotics) at 7,500 cells/well on 96-well plates and grown to confluence at 37° C. in a humidified atmosphere of 5% CO2/95% air. Three days after plating the medium was removed and with Differentiation Medium (DMEM/low glucose (1 g/L)+2% Horse Serum+antibiotics) added. The cultures were placed at 37° C. in a humidified atmosphere of 5% CO2/95% air for 5 days with partially replacement of medium daily. After 5 days of differentiation, the medium was removed from myotube cultures and replaced with Assay Medium (DMEM/low glucose (1 g/L)+antibiotics). Culture were placed at 37° C. in a humidified atmosphere of 5% CO2/95% air for 5 h. Following the 5 h incubation the medium was removed and fresh Assay Medium containing compounds was added; 5 μM peptide or 1 mM metformin as a potent stimulator of glucose utilization. Cells were incubated for 22 h at 37° C. in a humidified atmosphere of 5% CO2/95% air. Following 22 h incubation, conditioned medium from each well was transferred to a fresh 96-well plate. Glucose concentrations in the medium were determined using a Glucose Assay kit (Abcam; Cambridge, Mass.) according to the manufacturer's instructions; absorbance measured using a Cytation 3 plate reader at 570 nm (BioTek, Winooski, Vt.). Untreated cells were used as reference for basal glucose utilization. Absorbance values were expressed as percent control activity relative to untreated treated cells for 5 μM peptide. The relative standard deviation from plate to plate of untreated control was <10%. […] Data presented are representative values from 2-3 independent experiments with each data point performed in triplicate in each independent experiment.

Compared with “187 (AYEGCCYSCKQEDNADVSGFWVEK) [compound 187]”, 165 (MWRVLGALWW) [compound 165] is lower in “Percent of Control Activity” value: 110% for the first, 95% for the second.

Going from “28 (MGCSGSSVSQCYRVHTPQTKMPNAW) [compound 28]” to “201 (TKNFHQTPPPPLLATALKHISAKP) [compound 201]”, the “Percent of Control Activity” value falls from 100% to 96%.

First: 53 (MIYVSSDVGDWWKGGWGVWWVVHG) [compound 53]
Second: 149 (MVLSSPPIFRMSCSLL) [compound 149]
The “Percent of Control Activity” value of the first is higher: 101% for the first, 100% for the second.

Going from 126 (MSTHLPNYHTNLSYR) [compound 126] to 52 (MITVPAHKGMAMA) [compound 52], the “Percent of Control Activity” value falls from 110% to 104%.

Going from 124 (MSSAWIIWFRLFSI) [compound 124] to 62 (MLGVVGWCRL) [compound 62], the “Percent of Control Activity” value falls from 96% to 91%.

First: 121 (MSNMKTFSSA) [compound 121]
Second: 25 (MFLVGWWGMV) [compound 25]
The “Percent of Control Activity” value of the first is higher: 99% for the first, 97% for the second.

117 (MSKKIPATTMVLEWS) [compound 117] and “96 (MNHNQYYQSMLIINNHNSYSNKT) [compound 96]” are the same in “Percent of Control Activity” value: 91% for the first, 91% for the second.

Compared with 185 (MLVMLEVMFLVN) [compound 185], 141 (MVEGWLLYLLVSMG) [compound 141] is higher in “Percent of Control Activity” value: 92% for the first, 97% for the second.
